Measured values reported in patent US20250143297A1, “Arthropod Control Compositions” (FIRMENICH SA, priority 2022, published 2025).

Tests used:
[1] = tested on: Anopheles gambiae; assay: Warm Body assay, repellence of mosquito landing on treated warm body; type: in vivo
Protocol: Anopheles gambiae is also a model organism as it is anthropophilic and transmits malaria.
The controlling effect according to the present invention was assessed using an adapted Warm Body assay as defined in Kröber T, Kessler S, Frei J, Bourquin M, Guerin PM. 2010. J Am Mosq Control Assoc. 26:381-386. In this in-vitro assay the number of mosquito landing on a warm body, simulating an attractive host treated with the tested stimuli, was measured in order to assess the repellence effect.
On the sandblasted glass Petri dish covering the warm body (28.3 cm^2), 100 μL of the compounds diluted at different concentrations in ethanol was applied. The number of mosquito landing on the warm body was counted for each stimulus and pure ethanol (solvent) as control.

[2] = tested on: Aedes aegypti; assay: Arm-in-cage test on human volunteers; type: in vivo; settings: arm treated with 20%, three human volunteers
Protocol: The controlling effect, repellence & spatial repellence, according to the present invention is also determined according to an arm in the box method adapted from the WHO Guidelines for efficacy repellents testing of mosquito for human skin (WHO/CDS/NTD/WHOPES/2009.4). The readiness of 100 hungry female mosquitoes A. aegypti to a test substance is assessed by comparing the results of an untreated arm to a treated in when inserted into the cage (40×40×40 cm) for 30 seconds (negative control) three times. Further information is provided in the accompanying examples.
Arm-In-Cage Test is the Large-Scale Test Used to Assess on Human Volunteer the Repellent Efficacy on Mosquitoes.
The Arm in the box method was adapted from the WHO Guidelines for efficacy testing of mosquito repellents for human skin (WHO/CDS/NTD/WHOPES/2009.4). The readiness of 100 hungry female mosquitoes A. aegypti to probe is assessed by inserting an untreated arm into the cage (40×40×40 cm) for 30 seconds (negative control) three times (once at the beginning, once at the fourth hour and once at the eighth hour), to determine probing activity. Then, the product is applied onto the skin of the forearm of a human volunteer (1 mL per 600 cm^2) and after 5 minutes, this arm is inserted into the cage and exposed for 3 minutes. The assay take place in temperature (27±2° C.) and humidity (80±10% RH) regulated room on three different volunteers.

[3] = tested on: Aedes aegypti; assay: Warm Body assay, repellence of mosquito landing on treated warm body; type: in vivo; settings: for reduction of the number of mosquito landing: since the dose of 0.0016%
[4] = tested on: Ixodes ricinus; assay: Warm Plate Assay, tick repellence

## COc1ccc(CC(C)C=O)cc1 (stereo not shown) [compound 251, 3-(4-methoxyphenyl)-2-methylpropanal]
[1]; 4.47 mg/mL
  Percentage of repellence of mosquitoes Anopheles gambiae landing on the warm body: 100%
[1]; 10 mg/mL
  Percentage of repellence of mosquitoes Anopheles gambiae landing on the warm body: 96%
[2]; 5 min post-application
  percentage of repellence compared to untreated arm (mean ± SD): 100% ±
[2]; 1 h post-application
  percentage of repellence compared to untreated arm (mean ± SD): 99.84% ±
[2]; 2 h post-application
  percentage of repellence compared to untreated arm (mean ± SD): 98.82% ±
[2]; 3 h post-application
  percentage of repellence compared to untreated arm (mean ± SD): 95.59% ±
[2]; 4 h post-application
  percentage of repellence compared to untreated arm (mean ± SD): 87.3% ±
[2]; 5 h post-application
  percentage of repellence compared to untreated arm (mean ± SD): 81.02% ±
[2]; 6 h post-application
  percentage of repellence compared to untreated arm (mean ± SD): 73.75% ±
[2]; 7 h post-application
  percentage of repellence compared to untreated arm (mean ± SD): 65.56% ±
[2]; 8 h post-application
  percentage of repellence compared to untreated arm (mean ± SD): 64.04% ±
[3]; 0.0032 mg/mL
  Percentage of repellence of mosquitoes Aedes aegypti landing on the warm body: 0%
[3]; 0.0071 mg/mL
  Percentage of repellence of mosquitoes Aedes aegypti landing on the warm body: 0%
[3]; 0.016 mg/mL
  Percentage of repellence of mosquitoes Aedes aegypti landing on the warm body: 0%
[3]; 0.0357 mg/mL
  Percentage of repellence of mosquitoes Aedes aegypti landing on the warm body: 61%
[3]; 0.053 mg/mL
  Percentage of repellence of mosquitoes Aedes aegypti landing on the warm body: 54%
[3]; 0.08 mg/mL
  Percentage of repellence of mosquitoes Aedes aegypti landing on the warm body: 40%
[3]; 0.119 mg/mL
  Percentage of repellence of mosquitoes Aedes aegypti landing on the warm body: 52%
[3]; 0.178 mg/mL
  Percentage of repellence of mosquitoes Aedes aegypti landing on the warm body: 71%
[3]; 0.267 mg/mL
  Percentage of repellence of mosquitoes Aedes aegypti landing on the warm body: 97%
[3]; 0.4 mg/mL
  Percentage of repellence of mosquitoes Aedes aegypti landing on the warm body: 79%
[3]; 0.598 mg/mL
  Percentage of repellence of mosquitoes Aedes aegypti landing on the warm body: 93%
[3]; 0.89 mg/mL
  Percentage of repellence of mosquitoes Aedes aegypti landing on the warm body: 99%
[3]; 2 mg/mL
  Percentage of repellence of mosquitoes Aedes aegypti landing on the warm body: 96%
[3]; 4.47 mg/mL
  Percentage of repellence of mosquitoes Aedes aegypti landing on the warm body: 97%
[3]; 10 mg/mL
  Percentage of repellence of mosquitoes Aedes aegypti landing on the warm body: 89%

## CC(C)(C)c1ccc(CCC=O)cc1 [compound 294, 3-(4-tert-butylphenyl)propanal]
[1]; 0.178 mg/mL
  Percentage of repellence of mosquitoes Anopheles gambiae landing on the warm body: 42%
[1]; 0.267 mg/mL
  Percentage of repellence of mosquitoes Anopheles gambiae landing on the warm body: 14%
[1]; 0.4 mg/mL
  Percentage of repellence of mosquitoes Anopheles gambiae landing on the warm body: 55%
[1]; 4.47 mg/mL
  Percentage of repellence of mosquitoes Anopheles gambiae landing on the warm body: 96%
[1]; 10 mg/mL
  Percentage of repellence of mosquitoes Anopheles gambiae landing on the warm body: 96%
[3]; 0.016 mg/mL
  Percentage of repellence of mosquitoes Aedes aegypti landing on the warm body: 57%
[3]; 0.4 mg/mL
  Percentage of repellence of mosquitoes Aedes aegypti landing on the warm body: 54%
[3]; 10 mg/mL
  Percentage of repellence of mosquitoes Aedes aegypti landing on the warm body: 96%
[3]
  reduction of the number of mosquito landing: by half

## COC(C)(C)c1ccc(CCC=O)cc1 [compound 681, 3-[4-(2-methoxy-2-propanyl)phenyl]propanal]
[4]; 0.08 mg/mL
  Percentage of repellence of ticks Ixodes ricinus on the warm plate: 0.0%
[4]; 0.4 mg/mL
  Percentage of repellence of ticks Ixodes ricinus on the warm plate: 13.3%
[4]; 2 mg/mL
  Percentage of repellence of ticks Ixodes ricinus on the warm plate: 92.3%
[4]; 10 mg/mL
  Percentage of repellence of ticks Ixodes ricinus on the warm plate: 92.0%
[4]; 0.2% of stimulus applied
  repellence of ticks Ixodes ricinus: above 90%
[4]; 1% of stimulus applied
  repellence of ticks Ixodes ricinus: above 90%
[3]; 0.0032 mg/mL
  Percentage of repellence of mosquitoes Aedes aegypti landing on the warm body: 0%
[3]; 0.016 mg/mL
  Percentage of repellence of mosquitoes Aedes aegypti landing on the warm body: 0%
[3]; 0.08 mg/mL
  Percentage of repellence of mosquitoes Aedes aegypti landing on the warm body: 31%
[3]; 0.4 mg/mL
  Percentage of repellence of mosquitoes Aedes aegypti landing on the warm body: 49%
[3]; 2 mg/mL
  Percentage of repellence of mosquitoes Aedes aegypti landing on the warm body: 89%
[3]; 10 mg/mL
  Percentage of repellence of mosquitoes Aedes aegypti landing on the warm body: 92%

## Cc1cc(C(C)(C)C)ccc1CCC=O [compound 859, 3-[2-methyl-4-(2-methyl-2-propanyl)phenyl] propanal]
[3]; 0.016 mg/mL
  Percentage of repellence of mosquitoes Aedes aegypti landing on the warm body: 21%
[3]; 0.4 mg/mL
  Percentage of repellence of mosquitoes Aedes aegypti landing on the warm body: 65%
[3]; 10 mg/mL
  Percentage of repellence of mosquitoes Aedes aegypti landing on the warm body: 98%

## CC(C)(O)Cc1ccc(CCC=O)cc1 [compound 867, 3-[4-(2-hydroxy-2-methylpropyl)phenyl]propanal]
[3]; 0.016 mg/mL
  Percentage of repellence of mosquitoes Aedes aegypti landing on the warm body: 13%
[3]; 0.4 mg/mL
  Percentage of repellence of mosquitoes Aedes aegypti landing on the warm body: 27%
[3]; 10 mg/mL
  Percentage of repellence of mosquitoes Aedes aegypti landing on the warm body: 81%

## COC(C)(C)c1ccc(CCC=O)c(C)c1 [compound 875, 3-[4-(2-methoxy-2-propanyl)-2-methylphenyl]propanal]
[1]; 0.178 mg/mL
  Percentage of repellence of mosquitoes Anopheles gambiae landing on the warm body: 69%
[1]; 0.267 mg/mL
  Percentage of repellence of mosquitoes Anopheles gambiae landing on the warm body: 66%
[1]; 0.4 mg/mL
  Percentage of repellence of mosquitoes Anopheles gambiae landing on the warm body: 93%
[1]; 4.47 mg/mL
  Percentage of repellence of mosquitoes Anopheles gambiae landing on the warm body: 97%
[1]; 10 mg/mL
  Percentage of repellence of mosquitoes Anopheles gambiae landing on the warm body: 100%
[1]; lowest concentration tested, 0.0178%
  mosquitoes repelled: > 60%
[3]; 0.0032 mg/mL
  Percentage of repellence of mosquitoes Aedes aegypti landing on the warm body: 39%
[3]; 0.016 mg/mL
  Percentage of repellence of mosquitoes Aedes aegypti landing on the warm body: 60%
[3]; 0.08 mg/mL
  Percentage of repellence of mosquitoes Aedes aegypti landing on the warm body: 24%
[3]; 0.4 mg/mL
  Percentage of repellence of mosquitoes Aedes aegypti landing on the warm body: 81%
[3]; 2 mg/mL
  Percentage of repellence of mosquitoes Aedes aegypti landing on the warm body: 81%
[3]; 10 mg/mL
  Percentage of repellence of mosquitoes Aedes aegypti landing on the warm body: 96%
[3]
  reduction of the number of mosquito landing: by half

## CC(C)c1cccc(C(C)CC=O)c1 (stereo not shown) [compound 1389, 3-(3-propan-2-ylphenyl)butanal]
[1]; 4.47 mg/mL
  Percentage of repellence of mosquitoes Anopheles gambiae landing on the warm body: 58%
[1]; 10 mg/mL
  Percentage of repellence of mosquitoes Anopheles gambiae landing on the warm body: 96%
[3]; 0.0032 mg/mL
  Percentage of repellence of mosquitoes Aedes aegypti landing on the warm body: 11%
[3]; 0.016 mg/mL
  Percentage of repellence of mosquitoes Aedes aegypti landing on the warm body: 0%
[3]; 0.0357 mg/mL
  Percentage of repellence of mosquitoes Aedes aegypti landing on the warm body: 8%
[3]; 0.053 mg/mL
  Percentage of repellence of mosquitoes Aedes aegypti landing on the warm body: 74%
[3]; 0.08 mg/mL
  Percentage of repellence of mosquitoes Aedes aegypti landing on the warm body: 53%
[3]; 0.178 mg/mL
  Percentage of repellence of mosquitoes Aedes aegypti landing on the warm body: 30%
[3]; 0.4 mg/mL
  Percentage of repellence of mosquitoes Aedes aegypti landing on the warm body: 81%
[3]; 0.89 mg/mL
  Percentage of repellence of mosquitoes Aedes aegypti landing on the warm body: 88%
[3]; 2 mg/mL
  Percentage of repellence of mosquitoes Aedes aegypti landing on the warm body: 87%
[3]; 4.47 mg/mL
  Percentage of repellence of mosquitoes Aedes aegypti landing on the warm body: 84%
[3]; 10 mg/mL
  Percentage of repellence of mosquitoes Aedes aegypti landing on the warm body: 90%
